Experimental data as given in patent US20260042755A1, “GPR6 INVERSE AGONISTS” (MapLight Therapeutics, Inc., priority 2022, published 2026).

Columns and labels:
GPR6 = molecular target: T1, GPR6 (Homo sapiens, UniProt P46095); test: GPR6 antagonist functional cAMP assay (LANCE Ultra cAMP TR-FRET, CHO cells stably expressing GPR6); type: cell-based
T1 construct: expressed in transfected cells; host or cells: CHO cells
Experimental: (§1) Example 56. GPR6 and GPR3 Antagonist Functional cAMP Assay
(§2) CHO cells stably expressing GPR6 or GPR3 receptors were dissociated from cell culture flasks and incubated for 2 h at 37° C. in a 10 cm dish in a humidified incubator. Cells were dissociated, counted to have 1e6 cells/mL (4.5e6 cells needed/384-well plate), washed once in starved media, than in D-PBS and finally suspended in assay buffer (Krebs-Ringer Bicarbonate Buffer with 1800 mg/L glucose, without calcium chloride and sodium bicarbonate (Sigma) in the presence of 0.1% BSA and 150 μM of Ro 20-1724 Phosphodiesterase inhibitor).
(§3) Cells in suspension from above were plated in 384-well white Optiplate (PerkinElmer) at 10,000 cells/well/10 μl, briefly centrifuged prior direct addition of compounds ([…]) in 10 mM DMSO using a Tecan D300e Digital Dispenser, final DMSO in each well was normalized to 0.1%. Cells were incubated in the presence of compounds for 45 min at 37° C. in a humidified incubator.
(§4) To measure cAMP levels, LANCE® Ultra cAMP assay (Perkin Elmer), a homogeneous time-resolved fluorescence resonance energy transfer (TR-FRET) immunoassay was used following manufacturer's recommendations. Plates were shaken for 1 h at room temperature before reading on a Tecan InfiniteF200Pro multi-mode plate reader using standard FRET settings (Excitation 340 nm, Emission at 615 nm). FRET values were reported as readings obtained at 665 nm. Data were normalized to DMSO (0.1%) and reference compounds (100%) and fit to a 4-parameter logistical fit to generate antagonist IC50s.

GPR3 = molecular target: T2, GPR3 (Homo sapiens, UniProt P46089); test: GPR3 antagonist functional cAMP assay (LANCE Ultra cAMP TR-FRET, CHO cells stably expressing GPR3); type: cell-based
T2 construct: expressed in transfected cells; host or cells: CHO cells
Experimental: as §1, §2, §3, §4

[1] = CHO cells stably expressing GPR6, cAMP assay (Example 24)
[2] = CHO cells stably expressing GPR3, cAMP assay (Example 24)
[3] = CHO cells stably expressing GPR6, cAMP assay
[4] = CHO cells stably expressing GPR3, cAMP assay

T1 sequence (P46095 whole entry): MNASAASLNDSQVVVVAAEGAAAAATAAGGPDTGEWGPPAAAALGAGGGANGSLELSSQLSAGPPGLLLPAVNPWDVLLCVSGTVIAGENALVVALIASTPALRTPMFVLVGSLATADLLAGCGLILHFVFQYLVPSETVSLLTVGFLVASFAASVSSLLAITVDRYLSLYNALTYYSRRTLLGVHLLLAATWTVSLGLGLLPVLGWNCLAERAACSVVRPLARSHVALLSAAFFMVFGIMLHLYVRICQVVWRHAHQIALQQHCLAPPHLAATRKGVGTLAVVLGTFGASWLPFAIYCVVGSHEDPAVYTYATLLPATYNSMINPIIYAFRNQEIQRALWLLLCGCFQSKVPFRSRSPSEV
T2 sequence (P46089 whole entry, species assumed): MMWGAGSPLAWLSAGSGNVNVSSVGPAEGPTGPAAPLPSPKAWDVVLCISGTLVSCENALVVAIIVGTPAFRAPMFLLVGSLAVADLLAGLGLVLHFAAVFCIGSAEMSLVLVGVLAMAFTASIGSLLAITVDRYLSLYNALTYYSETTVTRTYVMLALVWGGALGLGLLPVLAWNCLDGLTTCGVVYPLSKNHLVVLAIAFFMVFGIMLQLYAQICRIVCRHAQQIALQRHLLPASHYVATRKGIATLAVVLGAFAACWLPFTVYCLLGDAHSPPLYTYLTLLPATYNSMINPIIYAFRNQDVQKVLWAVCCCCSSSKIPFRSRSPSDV

CC(=O)N1Cc2nc(-c3cnn(C)c3)c(N3CCC(Oc4ccc(F)cc4F)CC3)nc2CC1C (single isomer, unassigned) [Compound 446]
IC50 (GPR6; [1]): 100 to 1000 nM
IC50 (GPR3; [2]): 1000 to 30000 nM

C[C@H](O)[C@H](O)c1cc2nc(N3CCC(Oc4ccc(F)cc4F)CC3)c(-c3cnn(C)c3)nc2cn1 (single isomer, unassigned) [Compound 471]
IC50 (GPR6; [1]): 100 to 1000 nM
IC50 (GPR3; [2]): 1000 to 30000 nM

C[C@@H](O)[C@@H](O)c1cc2nc(N3CCC(Oc4ccc(F)cc4F)CC3)c(-c3cnn(C)c3)nc2cn1 (single isomer, unassigned) [Compound 472]
IC50 (GPR6; [1]): 100 to 1000 nM
IC50 (GPR3; [2]): 1000 to 30000 nM

CC(C)(O)[C@H](O)c1cc2nc(N3CCC(Oc4ccc(F)cc4F)CC3)c(-c3cnn(C(F)F)c3)nc2cn1 (single isomer, unassigned) [Compound 554]
IC50 (GPR6; [3]): < 100 nM
IC50 (GPR3; [4]): 1000 to 30000 nM

CC(C)(O)[C@@H](O)c1cc2nc(N3CCC(Oc4ccc(F)cc4F)CC3)c(-c3cnn(C(F)F)c3)nc2cn1 (single isomer, unassigned) [Compound 555]
IC50 (GPR6; [3]): 100 to 1000 nM
IC50 (GPR3; [4]): 1000 to 30000 nM

Cn1cc(-c2nc3cc(C(O)C(C)(C)O)ncc3nc2N2CCC(Oc3ccc(F)cc3F)CC2)cn1 (single isomer, unassigned) [Compound 561]
IC50 (GPR6; [3]): < 100 nM
IC50 (GPR3; [4]): 100 to 1000 nM

Cn1cc(-c2nc3cc(C(O)C(C)(C)O)ncc3nc2N2CCC(Oc3ccc(F)cc3F)CC2)cn1 (single isomer, unassigned) [Compound 562]
IC50 (GPR6; [3]): < 100 nM
IC50 (GPR3; [4]): 100 to 1000 nM

Cn1cc(-c2nc3cnc([C@@](C)(O)CO)cc3nc2N2CCC(Oc3ccc(F)cc3F)CC2)cn1 (single isomer, unassigned) [Compound 564]
IC50 (GPR6; [3]): 100 to 1000 nM
IC50 (GPR3; [4]): 1000 to 30000 nM

Cn1cc(-c2nc3cnc([C@](C)(O)CO)cc3nc2N2CCC(Oc3ccc(F)cc3F)CC2)cn1 (single isomer, unassigned) [Compound 565]
IC50 (GPR6; [3]): 1000 to 30000 nM
IC50 (GPR3; [4]): 1000 to 30000 nM

CCn1cc(-c2nc3cnc([C@@H](O)C(C)(C)O)cc3nc2N2CCC(Oc3ccc(F)cc3F)CC2)cn1 (single isomer, unassigned) [Compound 570]
IC50 (GPR6; [3]): < 100 nM
IC50 (GPR3; [4]): 1000 to 30000 nM

CCn1cc(-c2nc3cnc([C@H](O)C(C)(C)O)cc3nc2N2CCC(Oc3ccc(F)cc3F)CC2)cn1 (single isomer, unassigned) [Compound 571]
IC50 (GPR6; [3]): < 100 nM
IC50 (GPR3; [4]): 1000 to 30000 nM

CC(C)(O)[C@H](O)c1cc2nc(N3CCC(Oc4ccc(F)cc4F)CC3)c(-c3cnn(C4CC4)c3)nc2cn1 (single isomer, unassigned) [Compound 572]
IC50 (GPR6; [3]): 100 to 1000 nM
IC50 (GPR3; [4]): 1000 to 30000 nM

CC(C)(O)[C@@H](O)c1cc2nc(N3CCC(Oc4ccc(F)cc4F)CC3)c(-c3cnn(C4CC4)c3)nc2cn1 (single isomer, unassigned) [Compound 573]
IC50 (GPR6; [3]): 100 to 1000 nM
IC50 (GPR3; [4]): 1000 to 30000 nM

CCn1cc(-c2nc3cnc([C@@H](O)C(C)(C)O)cc3nc2N2CCN(Cc3ccc(F)cc3F)CC2)cn1 (single isomer, unassigned) [Compound 574]
IC50 (GPR6; [3]): 100 to 1000 nM
IC50 (GPR3; [4]): 1000 to 30000 nM

CC(C)(O)[C@H](O)c1cc2nc(N3CCN(Cc4ccc(F)cc4F)CC3)c(-c3cnn(C4CC4)c3)nc2cn1 (single isomer, unassigned) [Compound 576]
IC50 (GPR6; [3]): 100 to 1000 nM
IC50 (GPR3; [4]): 1000 to 30000 nM

Cn1cc(-c2nc3cnc([C@@H](O)C(C)(C)O)cc3nc2N2CCN(Cc3ccc(F)cc3F)CC2)cn1 (single isomer, unassigned) [Compound 578]
IC50 (GPR6; [3]): 100 to 1000 nM
IC50 (GPR3; [4]): 1000 to 30000 nM

Cn1cc(-c2nc3cnc([C@H](O)C(C)(C)O)cc3nc2N2CCN(Cc3ccc(F)cc3F)CC2)cn1 (single isomer, unassigned) [Compound 579]
IC50 (GPR6; [3]): < 100 nM
IC50 (GPR3; [4]): 100 to 1000 nM

CC(C)(O)C(O)c1cc2nc(-c3cnn(C(F)F)c3)c(N3CCC(Oc4ccc(F)cc4F)CC3)nc2cn1 (single isomer, unassigned) [Compound 583]
IC50 (GPR6; [3]): < 100 nM
IC50 (GPR3; [4]): 1000 to 30000 nM

CC(C)(O)C(O)c1cc2nc(-c3cnn(C(F)F)c3)c(N3CCC(Oc4ccc(F)cc4F)CC3)nc2cn1 (single isomer, unassigned) [Compound 584]
IC50 (GPR6; [3]): < 100 nM
IC50 (GPR3; [4]): 1000 to 30000 nM

CC(C)(O)C(O)c1cc2nc(-c3cnn(C(F)F)c3)c(N3CCN(Cc4ccc(F)cc4F)CC3)nc2cn1 (single isomer, unassigned) [Compound 585]
IC50 (GPR6; [3]): < 100 nM
IC50 (GPR3; [4]): 100 to 1000 nM

CC(C)(O)C(O)c1cc2nc(-c3cnn(C(F)F)c3)c(N3CCN(Cc4ccc(F)cc4F)CC3)nc2cn1 (single isomer, unassigned) [Compound 586]
IC50 (GPR6; [3]): < 100 nM
IC50 (GPR3; [4]): 100 to 1000 nM

CCn1cc(-c2nc3cc(C(O)C(C)(C)O)ncc3nc2N2CCC(Oc3ccc(F)cc3F)CC2)cn1 (single isomer, unassigned) [Compound 588]
IC50 (GPR6; [3]): < 100 nM
IC50 (GPR3; [4]): 100 to 1000 nM

CCn1cc(-c2nc3cc(C(O)C(C)(C)O)ncc3nc2N2CCC(Oc3ccc(F)cc3F)CC2)cn1 (single isomer, unassigned) [Compound 589]
IC50 (GPR6; [3]): < 100 nM
IC50 (GPR3; [4]): 100 to 1000 nM

CC(C)(O)C(O)c1cc2nc(-c3cnn(C4CC4)c3)c(N3CCC(Oc4ccc(F)cc4F)CC3)nc2cn1 (single isomer, unassigned) [Compound 590]
IC50 (GPR6; [3]): < 100 nM
IC50 (GPR3; [4]): 100 to 1000 nM

CC(C)(O)C(O)c1cc2nc(-c3cnn(C4CC4)c3)c(N3CCC(Oc4ccc(F)cc4F)CC3)nc2cn1 (single isomer, unassigned) [Compound 591]
IC50 (GPR6; [3]): < 100 nM
IC50 (GPR3; [4]): 1000 to 30000 nM

CC(C)(O)C(O)c1cc2nc(-c3cnn(CF)c3)c(N3CCC(Oc4ccc(F)cc4F)CC3)nc2cn1 (single isomer, unassigned) [Compound 592]
IC50 (GPR6; [3]): < 100 nM
IC50 (GPR3; [4]): 100 to 1000 nM

CC(C)(O)C(O)c1cc2nc(-c3cnn(CF)c3)c(N3CCC(Oc4ccc(F)cc4F)CC3)nc2cn1 (single isomer, unassigned) [Compound 593]
IC50 (GPR6; [3]): < 100 nM
IC50 (GPR3; [4]): 100 to 1000 nM

CC(C)(O)[C@H](O)c1cc2nc(N3CCC(Oc4ccc(F)cc4F)CC3)c(-c3cnn(CF)c3)nc2cn1 (single isomer, unassigned) [Compound 596]
IC50 (GPR6; [3]): 100 to 1000 nM
IC50 (GPR3; [4]): 1000 to 30000 nM

CC(C)(O)[C@@H](O)c1cc2nc(N3CCC(Oc4ccc(F)cc4F)CC3)c(-c3cnn(CF)c3)nc2cn1 (single isomer, unassigned) [Compound 597]
IC50 (GPR6; [3]): 100 to 1000 nM
IC50 (GPR3; [4]): 1000 to 30000 nM

CC(C)(O)[C@H](O)c1cc2nc(N3CCN(Cc4ccc(F)cc4F)CC3)c(-c3cnn(CF)c3)nc2cn1 (single isomer, unassigned) [Compound 598]
IC50 (GPR6; [3]): 100 to 1000 nM
IC50 (GPR3; [4]): 1000 to 30000 nM

CC(C)(O)[C@@H](O)c1cc2nc(N3CCN(Cc4ccc(F)cc4F)CC3)c(-c3cnn(CF)c3)nc2cn1 (single isomer, unassigned) [Compound 599]
IC50 (GPR6; [3]): 100 to 1000 nM
IC50 (GPR3; [4]): 1000 to 30000 nM

CC(C)(O)C(O)c1cc2nc(-c3cnn(C4CC4)c3)c(N3CCN(Cc4ccc(F)cc4F)CC3)nc2cn1 (single isomer, unassigned) [Compound 600]
IC50 (GPR6; [3]): < 100 nM
IC50 (GPR3; [4]): 100 to 1000 nM

CC(C)(O)C(O)c1cc2nc(-c3cnn(C4CC4)c3)c(N3CCN(Cc4ccc(F)cc4F)CC3)nc2cn1 (single isomer, unassigned) [Compound 601]
IC50 (GPR6; [3]): 100 to 1000 nM
IC50 (GPR3; [4]): 1000 to 30000 nM

CC(C)(O)C(O)c1cc2nc(-c3cnn(CF)c3)c(N3CCN(Cc4ccc(F)cc4F)CC3)nc2cn1 (single isomer, unassigned) [Compound 602]
IC50 (GPR6; [3]): 100 to 1000 nM
IC50 (GPR3; [4]): 100 to 1000 nM
